Article PMC10419174, “WR1065 conjugated to thiol-PEG polymers as novel anticancer prodrugs: broad spectrum efficacy, synergism, and drug resistance reversal” (Frontiers in Oncology, 2023)
Values joined by “and” are separate entries in the source; they are usually repeats but may differ in a detail not shown here. Equal values may be shown once. Marks after values point to notes of the source that are not given here.

Assays:
Test in all cases: cells
A549 NSCLC cells = test system: A549 NSCLC cells
Protocol: (§1) The percentage of growth inhibition was calculated as follows: […]

Prostate LNCaP cells = test system: Prostate LNCaP cells
Protocol: as §1

Prostate DU145 cells = test system: Prostate DU145 cells
Protocol: as §1

Ovary TOV21G cells = details: for Fold increase in efficacy: drug alone ÷ drug in 4SP65-DDP combination
Protocol: as §1

[1] = 48-h treatment, amifostine ND = not definable up to 500 µM
[2] = drug alone, 48 h, 4SP65/cisplatin study
[3] = drug alone, 48 h, 4SP65/gefitinib study
[4] = drug alone, 48 h, 4SP65/gefitinib study, ND = not definable, highest concentration in parentheses

Substance: 4-star-PEG-S-S-WR1065 [4SP65]
- gains of cytostatic and cytolytic activities, range (A549 NSCLC cells; 4SP65-cisplatin combined): 1.9- to 2.4 fold
- GI50 (A549 NSCLC cells; [1]): 5.3 ± 1.1 µM
- IC50 (A549 NSCLC cells; [1]): 6.8 ± 1.3 µM
- LC99 (A549 NSCLC cells; [1]): 14.9 ± 3.8 µM
- TGI (A549 NSCLC cells; [1]): 8.5 ± 1.5 µM and 8.5 µM
- LC99, drug in combination (CMB) (A549 NSCLC cells; amount of each drug in combination, ratio 50% 4SP65:50% DDP, 48 h): 8 µM
- Dose reduction value 1LP65 ÷ 4SP65 (A549 NSCLC cells; at GI50): 9.9 fold
- Dose reduction value AMF ÷ 4SP65 (A549 NSCLC cells; at GI50): 43 fold
- Dose reduction value 1LP65 ÷ 4SP65 (A549 NSCLC cells; at IC50): 9.8 fold
- Dose reduction value AMF ÷ 4SP65 (A549 NSCLC cells; at IC50): 37 fold
- Dose reduction value 1LP65 ÷ 4SP65 (A549 NSCLC cells; at LC50): 13 fold
- Dose reduction value 1LP65 ÷ 4SP65 (A549 NSCLC cells; at LC99): 13 fold
- Dose reduction value 1LP65 ÷ 4SP65 (A549 NSCLC cells; at TGI): 15 fold
- Fold increase in efficacy (A549 NSCLC cells; drug alone ÷ drug in 4SP65-DDP combination, at GI50): 2.4* fold
- Fold increase in efficacy (A549 NSCLC cells; drug alone ÷ drug in 4SP65-DDP combination, at IC50): 2.2* fold
- Fold increase in efficacy (A549 NSCLC cells; drug alone ÷ drug in 4SP65-DDP combination, at LC50): 1.9* fold
- Fold increase in efficacy (A549 NSCLC cells; drug alone ÷ drug in 4SP65-DDP combination, at LC99): 1.9* fold
- Fold increase in efficacy (A549 NSCLC cells; drug alone ÷ drug in 4SP65-DDP combination, at TGI): 1.9* fold
- Fold increase in efficacy (A549 NSCLC cells; drug alone ÷ drug in 4SP65-GEF combination, at GI50): 1.5** fold
- Fold increase in efficacy (A549 NSCLC cells; drug alone ÷ drug in 4SP65-GEF combination, at IC50): 1.4** fold
- Fold increase in efficacy (A549 NSCLC cells; drug alone ÷ drug in 4SP65-GEF combination, at LC50, GoE = gain of effect): 1.1 (NS) fold
- Fold increase in efficacy (A549 NSCLC cells; drug alone ÷ drug in 4SP65-GEF combination, at LC99, GoE = gain of effect): 1.0 (NS) fold
- Fold increase in efficacy (A549 NSCLC cells; drug alone ÷ drug in 4SP65-GEF combination, at TGI, GoE = gain of effect): 1.5** fold
- GI50 (A549 NSCLC cells; [2]): 5.4 ± 2.5 µM
- IC50 (A549 NSCLC cells; [2]): 6.8 ± 1.3 µM
- LC99 (A549 NSCLC cells; [2]): 14.9 ± 3.8 µM
- TGI (A549 NSCLC cells; [2]): 8.3 ± 1.5 µM
- GI50 (A549 NSCLC cells; [3]): 6 ± 0.6 µM
- IC50 (A549 NSCLC cells; [3]): 7.4 ± 0.7 µM
- LC99 (A549 NSCLC cells; [4]): 12.3 ± 3.8 µM
- TGI (A549 NSCLC cells; [4]): 11.3 ± 1.5 µM
- CC50 (Prostate LNCaP cells): 7.3 ± 1.8 µM
- GI50 (Prostate LNCaP cells; [1]): 2.5 ± 1 µM
- IC50 (Prostate LNCaP cells; [1]): 3.1 ± 1.5 µM
- LC99 (Prostate LNCaP cells; [1]): 10.1 ± 1.0 µM
- TGI (Prostate LNCaP cells; [1]): 4.7 ± 1.5 µM
- Dose reduction value 1LP65 ÷ 4SP65 (Prostate LNCaP cells; at GI50): 11 fold
- Dose reduction value AMF ÷ 4SP65 (Prostate LNCaP cells; at GI50): 60 fold
- Dose reduction value 1LP65 ÷ 4SP65 (Prostate LNCaP cells; at IC50): 14 fold
- Dose reduction value AMF ÷ 4SP65 (Prostate LNCaP cells; at IC50): 122 fold
- Dose reduction value 1LP65 ÷ 4SP65 (Prostate LNCaP cells; at LC50): 12 fold
- Dose reduction value 1LP65 ÷ 4SP65 (Prostate LNCaP cells; at LC99): 11 fold
- Dose reduction value 1LP65 ÷ 4SP65 (Prostate LNCaP cells; at TGI): 11 fold
- CC50 (Prostate DU145 cells): 11.1 ± 0.1 µM
- GI50 (Prostate DU145 cells; [1]): 7.5 ± 1.2 µM
- IC50 (Prostate DU145 cells; [1]): 8.5 ± 1 µM
- LC99 (Prostate DU145 cells; [1]): 12.0 ± 0.1 µM
- TGI (Prostate DU145 cells; [1]): 9.5 ± 0.7 µM and 9.5 µM
- Dose reduction value 1LP65 ÷ 4SP65 (Prostate DU145 cells; at GI50): 3.5 fold
- Dose reduction value AMF ÷ 4SP65 (Prostate DU145 cells; at GI50): 17 fold
- Dose reduction value 1LP65 ÷ 4SP65 (Prostate DU145 cells; at IC50): 3.5 fold
- Dose reduction value AMF ÷ 4SP65 (Prostate DU145 cells; at IC50): 38 fold
- Dose reduction value 1LP65 ÷ 4SP65 (Prostate DU145 cells; at LC50): 6.4 fold
- Dose reduction value 1LP65 ÷ 4SP65 (Prostate DU145 cells; at LC99): 7.0 fold
- Dose reduction value 1LP65 ÷ 4SP65 (Prostate DU145 cells; at TGI): 5.6 fold
- CC50 (Ovary TOV21G cells): 2.7 µM
- gains in total growth inhibition and cytolytic effects, range (Ovary TOV21G cells; 4SP65-cisplatin combined): 2.4- to 3.2 fold
- GI50 (Ovary TOV21G cells; [1]): 0.9 ± 0.4 µM
- IC50 (Ovary TOV21G cells; [1]): 1.2 ± 0.3 µM
- TGI (Ovary TOV21G cells; [1]): 2.0 ± 0.4 µM
- LC99, drug in combination (CMB) (Ovary TOV21G cells; amount of each drug in combination, ratio 14% 4SP65:86% DDP, 48 h): 0.95 µM
- Dose reduction value 1LP65 ÷ 4SP65 (Ovary TOV21G cells; at GI50): 24 fold
- Dose reduction value AMF ÷ 4SP65 (Ovary TOV21G cells; at GI50): 52 fold
- Dose reduction value 1LP65 ÷ 4SP65 (Ovary TOV21G cells; at IC50): 22 fold
- Dose reduction value AMF ÷ 4SP65 (Ovary TOV21G cells; at IC50): 41 fold
- Dose reduction value 1LP65 ÷ 4SP65 (Ovary TOV21G cells; at LC50): 19 fold
- Dose reduction value 1LP65 ÷ 4SP65 (Ovary TOV21G cells; at LC99): 31 fold
- Dose reduction value 1LP65 ÷ 4SP65 (Ovary TOV21G cells; at TGI): 27 fold
- Fold increase in efficacy (Ovary TOV21G cells; at GI50): 2.3 (NS) fold
- Fold increase in efficacy (Ovary TOV21G cells; at IC50): 1.9 (NS) fold
- Fold increase in efficacy (Ovary TOV21G cells; at LC50): 3.0*** fold
